Test results published in ChEMBL document CHEMBL5247653, “Discovery of Clinical Candidate ACT-777991, a Potent CXCR3 Antagonist for Antigen-Driven and Inflammatory Pathologies” (J Med Chem, 2023).

How the values were obtained:
[1] = molecular target: T1, C-X-C chemokine receptor type 3 (Homo sapiens, UniProt P49682); assay: Antagonist activity at CXCR3 (unknown origin) in human T cells in venous blood assessed as receptor internalization incubated for 30 mins in presence of CXCL10 by flow cytometric analysis; type: cell-based, T cell
T1 sequence (P49682 whole entry): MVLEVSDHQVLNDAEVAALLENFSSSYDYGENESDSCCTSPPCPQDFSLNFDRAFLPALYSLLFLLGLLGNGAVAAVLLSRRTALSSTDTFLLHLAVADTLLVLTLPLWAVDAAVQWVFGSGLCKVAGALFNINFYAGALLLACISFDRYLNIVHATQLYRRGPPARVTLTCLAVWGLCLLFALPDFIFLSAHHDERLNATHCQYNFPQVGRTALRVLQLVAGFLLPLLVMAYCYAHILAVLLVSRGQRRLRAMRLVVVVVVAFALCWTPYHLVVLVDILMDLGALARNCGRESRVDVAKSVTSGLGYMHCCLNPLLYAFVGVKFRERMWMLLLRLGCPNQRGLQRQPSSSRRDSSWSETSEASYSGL

[2] = molecular target: Voltage-gated inwardly rectifying potassium channel KCNH2 (Homo sapiens, UniProt Q12809); assay: Inhibition of human ERG stably expressed in CHO cells at -80 mV holding voltage by automated QPatch electrophysiological assay; type: toxicity, cell-based
Chain of Voltage-gated inwardly rectifying potassium channel KCNH2 (Q12809 whole entry): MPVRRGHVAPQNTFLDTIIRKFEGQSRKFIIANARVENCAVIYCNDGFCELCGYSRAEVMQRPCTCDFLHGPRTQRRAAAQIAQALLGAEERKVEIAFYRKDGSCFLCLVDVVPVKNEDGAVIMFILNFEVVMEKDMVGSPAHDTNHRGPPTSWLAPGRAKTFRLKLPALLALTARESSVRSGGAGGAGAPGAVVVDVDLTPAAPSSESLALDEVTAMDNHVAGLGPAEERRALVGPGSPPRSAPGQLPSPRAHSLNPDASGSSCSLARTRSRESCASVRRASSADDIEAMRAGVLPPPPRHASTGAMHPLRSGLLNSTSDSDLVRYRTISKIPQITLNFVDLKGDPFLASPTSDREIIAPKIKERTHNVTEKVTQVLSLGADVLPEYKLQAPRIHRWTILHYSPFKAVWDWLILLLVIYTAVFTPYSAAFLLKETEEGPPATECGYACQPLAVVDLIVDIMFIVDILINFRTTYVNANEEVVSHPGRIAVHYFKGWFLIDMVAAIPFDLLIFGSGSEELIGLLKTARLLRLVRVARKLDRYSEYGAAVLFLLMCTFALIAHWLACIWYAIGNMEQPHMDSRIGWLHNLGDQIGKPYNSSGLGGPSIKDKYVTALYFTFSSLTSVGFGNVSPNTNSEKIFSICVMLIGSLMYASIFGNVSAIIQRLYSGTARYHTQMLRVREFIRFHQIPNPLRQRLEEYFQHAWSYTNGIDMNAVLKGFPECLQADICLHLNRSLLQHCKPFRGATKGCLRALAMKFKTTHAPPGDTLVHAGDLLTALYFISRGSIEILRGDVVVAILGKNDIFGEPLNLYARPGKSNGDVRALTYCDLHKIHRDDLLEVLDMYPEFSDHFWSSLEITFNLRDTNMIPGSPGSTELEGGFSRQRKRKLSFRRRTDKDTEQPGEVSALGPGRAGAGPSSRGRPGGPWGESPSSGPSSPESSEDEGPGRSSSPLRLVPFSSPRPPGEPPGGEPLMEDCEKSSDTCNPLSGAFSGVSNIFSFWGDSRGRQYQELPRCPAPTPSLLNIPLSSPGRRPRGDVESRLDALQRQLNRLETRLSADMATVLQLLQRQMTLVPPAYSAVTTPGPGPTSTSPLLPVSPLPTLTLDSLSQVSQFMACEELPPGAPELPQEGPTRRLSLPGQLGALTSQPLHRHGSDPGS

[3] = Metabolic stability in human hepatocytes assessed as intrinsic clearance per 10^6 cells at 1 uM by LC-MS/MS analysis; type: ADME, cell-based, Hepatocyte
[4] = molecular target: Cytochrome P450 2D6 (Homo sapiens, UniProt P10635); assay: (§1) […] recombinant human CYP2D6 mediated drug metabolism in human liver microsomes assessed as intrinsic clearance at 1 uM incubated for 45 mins in presence of NADPH regenerating system by LC-MS/MS analysis; type: ADME, Microsome; conditions: microsomes, 0.75 h, 1 µM
Chain of Cytochrome P450 2D6 (P10635 whole entry): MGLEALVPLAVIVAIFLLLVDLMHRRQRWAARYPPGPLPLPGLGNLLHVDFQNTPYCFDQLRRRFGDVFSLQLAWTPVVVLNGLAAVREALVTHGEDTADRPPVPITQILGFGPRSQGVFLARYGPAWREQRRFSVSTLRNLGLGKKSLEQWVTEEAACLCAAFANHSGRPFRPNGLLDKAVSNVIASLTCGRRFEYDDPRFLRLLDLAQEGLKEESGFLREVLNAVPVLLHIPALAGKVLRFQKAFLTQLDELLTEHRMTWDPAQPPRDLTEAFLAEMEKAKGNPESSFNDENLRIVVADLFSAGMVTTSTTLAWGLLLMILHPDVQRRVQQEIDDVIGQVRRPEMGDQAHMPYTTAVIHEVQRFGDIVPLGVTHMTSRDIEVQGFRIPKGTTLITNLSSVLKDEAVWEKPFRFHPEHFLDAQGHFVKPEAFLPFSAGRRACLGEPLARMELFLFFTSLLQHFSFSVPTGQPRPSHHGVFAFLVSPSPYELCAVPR

[5] = Lipophilicity, log D of compound; type: physicochemical; conditions: octanol/water
[6] = Protein binding in dog plasma assessed as fraction unbound at 1 uM incubated for 6 hrs by rapid equilibrium dialysis based LC-MS/MS analysis; type: ADME, cell-free, Canis lupus familiaris
[7] = Metabolic stability in dog hepatocytes assessed as intrinsic clearance per 10^6 cells at 1 uM by LC-MS/MS analysis; type: ADME, cell-based, Canis lupus familiaris, Hepatocyte
[8] = Drug excretion in urine of Wistar rat assessed as unchanged drug at 0.5 mg/kg, iv; type: ADME, organism-based; conditions: read-out: Drug excretion
[9] = Total clearance in Beagle dog plasma at 1 mg/kg, iv; type: ADME, organism-based, Canis lupus familiaris
[10] = Metabolic stability in rat liver microsomes assessed as intrinsic clearance at 1 uM and measured upto 15 mins in presence of NADPH regenerating system by LC-MS/MS analysis; type: ADME, Microsome; conditions: read-out: CLH
[11] = Metabolic stability in dog liver microsomes assessed as intrinsic clearance at 1 uM and measured upto 15 mins in presence of NADPH regenerating system by LC-MS/MS analysis; type: ADME, Canis lupus familiaris, Microsome; conditions: read-out: CLH
[12] = Metabolic stability in rat hepatocytes assessed as intrinsic clearance per 10^6 cells at 1 uM by LC-MS/MS analysis; type: ADME, cell-based, Hepatocyte
[13] = Protein binding in rat plasma assessed as fraction unbound at 1 uM incubated for 6 hrs by rapid equilibrium dialysis based LC-MS/MS analysis; type: ADME, cell-free
[14] = Unbound clearance in Beagle dog plasma at 1 mg/kg, iv; type: ADME, organism-based, Canis lupus familiaris; conditions: in vivo
[15] = Protein binding in human plasma assessed as fraction unbound at 1 uM incubated for 6 hrs by rapid equilibrium dialysis based LC-MS/MS analysis; type: ADME, cell-free
[16] = Total clearance in Wistar rat plasma at 0.5 mg/kg, iv; type: ADME, organism-based
[17] = molecular target: CYP3A4 (Homo sapiens, UniProt P08684); assay: […] recombinant human CYP3A4 mediated drug metabolism in human liver microsomes assessed as intrinsic clearance at 1 uM incubated for 45 mins in presence of NADPH regenerating system by LC-MS/MS analysis; type: ADME, Microsome; conditions: read-out: CLH
Chain of CYP3A4 (P08684 whole entry): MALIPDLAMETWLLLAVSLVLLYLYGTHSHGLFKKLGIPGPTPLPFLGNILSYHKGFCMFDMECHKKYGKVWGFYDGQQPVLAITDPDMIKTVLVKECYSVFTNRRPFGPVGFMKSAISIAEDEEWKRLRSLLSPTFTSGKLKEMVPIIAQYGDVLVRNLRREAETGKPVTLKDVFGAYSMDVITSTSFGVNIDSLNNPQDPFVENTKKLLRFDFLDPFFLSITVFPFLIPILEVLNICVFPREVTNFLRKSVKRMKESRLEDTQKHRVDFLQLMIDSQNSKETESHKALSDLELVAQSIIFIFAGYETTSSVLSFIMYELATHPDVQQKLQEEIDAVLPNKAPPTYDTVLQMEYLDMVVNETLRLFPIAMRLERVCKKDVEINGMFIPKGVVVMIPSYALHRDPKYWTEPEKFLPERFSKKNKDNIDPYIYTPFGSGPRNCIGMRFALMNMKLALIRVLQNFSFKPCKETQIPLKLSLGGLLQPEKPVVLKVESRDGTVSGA

[18] = Metabolic stability in human liver microsomes assessed as intrinsic clearance at 1 uM and measured upto 15 mins in presence of NADPH regenerating system by LC-MS/MS analysis; type: ADME, Microsome; conditions: read-out: CLH
[19] = Unbound clearance in Wistar rat plasma at 0.5 mg/kg, iv; type: ADME, organism-based; conditions: in vivo
[20] = molecular target: CYP2D6 (Homo sapiens, UniProt P10635); assay: as §1; type: ADME, Microsome; conditions: recombinant human CYP2D6, read-out: CLH
Chain of CYP2D6 (P10635 whole entry): as the sequence (P10635 whole entry) above

[21] = Oral bioavailability in Wistar rat at 2 mg/kg; type: ADME, organism-based; conditions: in vivo
[22] = Clearance in Wistar rat at 2 mg/kg,po; type: ADME, organism-based; conditions: in vivo
[23] = Oral bioavailability in Beagle dog at 2 mg/kg; type: ADME, organism-based, Canis lupus familiaris; conditions: in vivo

SMILES | IC50 [1] [µM] | logD [5] | microsomal CLint at 1 µM [18] [µL/min/mg] | IC50 [2] [µM] | also measured
C[C@@H]1CN(c2sc(C(F)(F)F)nc2-c2cnc(C(F)(F)F)nc2)CCN1C(=O)Cn1cnc(C#N)n1 | 1.32 | – | – | 2.6 | –
CCc1nncn1CC(=O)N1CCN(c2sc(C(F)(F)F)nc2-c2cnc(C(F)(F)F)nc2)C[C@H]1C | 1.19 | 2.3 | – | > 60 | –
Cc1ccn(CC(=O)N2CCN(c3sc(C(F)(F)F)nc3-c3cnc(C(F)(F)F)nc3)C[C@@H]2CCO)n1 | 0.143 | – | 23 | 12 | microsomal CLint at 1 µM [20]: 0.37 µL/min/mg; microsomal CLint at 1 µM [17]: 0.56 µL/min/mg
Cc1ccn(CC(=O)N2CCN(c3sc(C(F)(F)F)nc3-c3cnc(C(F)(F)F)nc3)C[C@H]2CCO)n1 | 0.0302 | – | 19 | 5 | –
CCc1ncn(CC(=O)N2CCN(c3sc(C(F)(F)F)nc3-c3cnc(C(F)(F)F)nc3)C[C@@H]2CCO)n1 | 0.265 | – | 17 | 27 | –
C[C@@H]1CN(c2sc(C(F)(F)F)nc2-c2cnc(C(F)(F)F)nc2)CCN1C(=O)Cn1cnc(CO)n1 | 0.51 | – | – | > 60 | –
Cc1ncn(CC(=O)N2CCN(c3sc(C(F)(F)F)nc3-c3cnc(C(F)(F)F)nc3)C[C@@H]2CO)n1 | 0.273 | – | – | > 60 | –
O=C(Cn1cnc(C2CC2)n1)N1CCN(c2sc(C(F)(F)F)nc2-c2cnc(C(F)(F)F)nc2)C[C@H]1CO | 0.14 | – | < 10 | 31 | –
CC(C)c1ncn(CC(=O)N2CCN(c3sc(C(F)(F)F)nc3-c3cnc(C(F)(F)F)nc3)C[C@@H]2CO)n1 | 0.161 | – | 27 | 17 | –
CCc1ncnn1CC(=O)N1CCN(c2sc(C(F)(F)F)nc2-c2cnc(C(F)(F)F)nc2)C[C@H]1C | 1.19 | 2.8 | – | 13 | –
CC(C)c1ncn(CC(=O)N2CCN(c3sc(C(F)(F)F)nc3-c3cnc(C(F)(F)F)nc3)C[C@@H]2CCO)n1 | 0.165 | – | 22 | 19 | microsomal CLint at 1 µM [20]: 0.28 µL/min/mg; microsomal CLint at 1 µM [17]: 1.9 µL/min/mg

Now from value to compound, other results behind:

IC50 [1] [µM] | logD [5] | microsomal CLint at 1 µM [18] [µL/min/mg] | SMILES | IC50 [2] [µM] | also measured
0.0449 | 2.8 | < 10 | CCc1ncn(CC(=O)N2CCN(c3sc(C(F)(F)F)nc3-c3cnc(C(F)(F)F)nc3)C[C@H]2CCO)n1 | 9.8 | CLH [3]: < 2 µL/min/mg; CLH [4]: 0.09 µL/min/mg; fraction unbound at 6 h, 1 µM [6]: 0.3; CLH [7]: < 2 µL/min/mg; dose excreted [8]: 37%; clearance [9]: 19 mL/min/kg; microsomal CLint at 1 µM [10]: 13 µL/min/mg; microsomal CLint at 1 µM [11]: < 10 µL/min/mg; CLH [12]: 3.2 µL/min/mg; fraction unbound at 6 h, 1 µM [13]: 0.045; CL free [14]: 64 mL/min/kg; fraction unbound at 6 h, 1 µM [15]: 0.15; clearance [16]: 14 mL/min/kg; microsomal CLint at 1 µM [17]: 0.33 µL/min/mg; CL free [19]: 311 mL/min/kg
0.144 | 2.7 | – | Cc1ncn(CC(=O)N2CCN(c3sc(C(F)(F)F)nc3-c3cnc(C(F)(F)F)nc3)C[C@H]2C)n1 | 17 | –
0.0564 | 3.4 | – | Cc1ccn(CC(=O)N2CCN(c3sc(C(F)(F)F)nc3-c3cnc(C(F)(F)F)nc3)C[C@H]2C)n1 | 5.1 | –
0.208 | 2.6 | < 10 | CCc1ncn(CC(=O)N2CCN(c3sc(C(F)(F)F)nc3-c3cnc(C(F)(F)F)nc3)C[C@H]2CO)n1 | 52 | –
0.225 | – | 33 | CC(C)c1ncn(CC(=O)N2CCN(c3sc(C(F)(F)F)nc3-c3cnc(C(F)(F)F)nc3)C[C@H]2CO)n1 | 29 | microsomal CLint at 1 µM [20]: 0.13 µL/min/mg; microsomal CLint at 1 µM [17]: 1.2 µL/min/mg
0.128 | – | – | CC(C)c1ncn(CC(=O)N2CCN(c3sc(C(F)(F)F)nc3-c3cnc(C(F)(F)F)nc3)C[C@H]2C)n1 | 7 | bioavailability [21]: > 100%; CL/F [22]: 6.5 mL/min/kg; bioavailability [23]: ≥ 100%
0.44 | – | – | COCc1ncn(CC(=O)N2CCN(c3sc(C(F)(F)F)nc3-c3cnc(C(F)(F)F)nc3)C[C@H]2C)n1 | 18 | –
